Patent US7214507B2, “Plant enzymes for bioconversion” (Plant Research International B.V., priority 2001, dated 2007)
“And” between values parts separate entries of the source, which are not always exact repeats. Equal entries are not always repeated.

Experiments:
[1] = system: microsomal pellet from chicory roots; assay: Conversion of (+)-valencene by a microsomal pellet of chicory in the presence of NADPH; conditions: 100% = hydroxylation rate of β-selinene, 60 min
Protocol: The enzyme suspension was divided in 1 mL aliquots and incubated with 50 μM (+)-valencene in the presence of a 1 mM NADPH-regenerating system that consisted of 1 mM NADPH, 5 mM glucose-6-phosphate, and 1.2 IU glucose-6-phosphate cehydrogenase. The initial concentration of substrate in each assay was 45 μM and all experiments were done in duplicate. To the blank assays no NADPH regenerating system was added, so that cytochrome P450 enzymes (including the (+)-germacrene A hydroxylase) were not active. After 60 minutes the incubations were stopped by storing them at −20° C. in a freezer.

[2] = system: (+)-germacrene A hydroxylase; assay: Competitive inhibition of hydroxylation by 50 μM (+)-germacrene A or 50 μM α-cubebene; conditions: amorpha-4,11-diene alcohol (KI 1720), germacrene B alcohol (KI 1700)
[3] = system: NAD(P)+-dependent dehydrogenase(s); assay: Oxidation of alcohols by 150,000 g supernatant of chicory roots with NAD(P)+; format: biochemical, Cichorium intybus L.; conditions: 100 μM substrate
Protocol: It was assumed that this β-nootkatol is an intermediate in the formation of nootkatone. For this reason incubations of 100 μM β-nootkatol were performed at pH 10 with NAD(P)^+and a 150,000 g supernatant of chicory roots, such as described for the conversion of (−)-elema-1,3,11(13)-12-ol and germacra-1(10),4,11(13)-trien-12-ol by NADP^+-dependent dehydrogenases by De Kraker et al. (2001). During incubation the added β-nootkatol was converted for more than 60% into nootkatone in the presence of either 1 mM NADP^+ or 1 mM NAD^+. In the absence of these cofactors conversion still amounted to 25%, whereas the boiled enzyme extract gave no conversion of β-nootkatol. At pH 7.5, enzyme activity was slightlylower, whereas a 150,000 g pellet, as expected, yielded 3-fold less dehydrogenase activity than the corresponding supernatant.
To get some more information about the substrate specificity of the dehydrogenase(s) present in chicory roots, incubations with the 150,000 g supernatant were also performed with 100 μM trans,trans-farnesol as substrate (FIG. 19) in the presence of either NAD^+ or NADP^+. Trans,trans-farnesol was converted up to 60% into a mixture of trans,trans-farnesal and cis,trans-farnesal, and small amounts of farnesoic acid were observed as well.

C=C(C)[C@@H]1CCC2=CCC[C@@H](C)[C@]2(C)C1 [(+)-valencene]
Relative conversion to nootkatone [1]: 24.4% and 24.4 ± 1.1% | Relative conversion to valencen-12-ol [1]: 2.61% and 2.6 ± 0.1%

CC(C)=C1C/C=C(\C)CC/C=C(\C)CC1 [germacrene B]
Inhibition (%) ± SD, Germacrene A, second product ([2]; 50 μM (+)-germacrene A added): 100.0% | Inhibition (%) ± SD, α-Cubebene, second product ([2]; 50 μM α-cubebene added): 27.3 ± 10%

C=C(C)[C@@H]1CCC2=C[C@@H](O)C[C@@H](C)[C@]2(C)C1 [β-nootkatol]
Conversion into nootkatone ([3]; pH 10, 1 mM NADP+ or 1 mM NAD+, 150,000 g supernatant): more than 60% | Conversion into nootkatone in the absence of cofactors ([3]; pH 10, no NAD(P)+): 25%
